Test results: US11472838B2, “Inhibitors of blood coagulation factor XIII” (Zedira GmbH, priority 2018, dated 2022)
Read-outs that look alike come from different tables or passages of the source. *1 amine or outer side, *2 acyl side, *3 side chain or, on linkers, in order; H or OH if unused. Where a SMILES comes first, the peptide text is derived from it. [ ]: non-standard residue; d: D form. The star is where a group is joined. ξ: configuration not given here. Benzoyl(3-COOH,5-NO2) = O=C(O)c1cc(C(=O)*)cc([N+](=O)[O-])c1; Pro(3R,4S-CMe2) = CC1(C)[C@@H]2[C@@H](C(=O)O)NC[C@@H]21; Benzoyl(2-COOH-4,5-Cl2) = O=C(O)c1cc(Cl)c(Cl)cc1C(=O)*; Nle(5E-ene,6-CO2Et) = CCOC(=O)/C=C/CC[C@H](N)C(=O)O; X1 = COC(=O)/C=C/CC[C@H](N[*:1])C(=O)[*:2]; Pro(4-methylene) = C=C1CN[C@H](C(=O)O)C1; Morpholine(3S-CO) = O=C(O)[C@@H]1COCCN1; Pro(4-oxo) = O=C1CN[C@H](C(=O)O)C1; Ala(cPr) = N[C@@H](CC1CC1)C(=O)O; Ile(3ξ) = CCC(C)[C@H](N)C(=O)O; Thr(3ξ) = CC(O)[C@H](N)C(=O)O; Chg = N[C@H](C(=O)O)C1CCCCC1; Tle = CC(C)(C)[C@H](N)C(=O)O; αMeP = C[C@@]1(C(=O)O)CCCN1; X6 = Cc1cccc(C)c1OCC(C)N*; Nle = CCCC[C@H](N)C(=O)O; NHIsopentyl = CC(C)CCN*; ξV = CC(C)C(N)C(=O)O; Alloc = C=CCOC(=O)*

Tests used:
in vitro = settings: for half-life: plasma
Protocol: Further, the stability of compounds in plasma was determined as prerequisite for drug-likeness. Briefly, after spiking the chemical entities, the plasma was incubated at 37° C. At certain time points (e.g. at 15 and 120 minutes), 3 vol. cold MeOH were added to extract the compounds. After centrifugation, the supernatant was analyzed by HPLC. The half life was calculated based on the respective calibration curve.

FXIII = FXIII (Homo sapiens (Human), UniProt P00488); assay: Inhibitory activity against FXIII (isopeptidase assay), Tables 3 and 4; assay type: biochemical;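 also: FXIIIa activity read with a peptide substrate derived from the α2-antiplasmin N-terminal dodecapeptide, FXIII activated beforehand at room temperature, inhibitor-free wells with DMSO buffer as control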
Sequence of FXIII (P00488 39-732): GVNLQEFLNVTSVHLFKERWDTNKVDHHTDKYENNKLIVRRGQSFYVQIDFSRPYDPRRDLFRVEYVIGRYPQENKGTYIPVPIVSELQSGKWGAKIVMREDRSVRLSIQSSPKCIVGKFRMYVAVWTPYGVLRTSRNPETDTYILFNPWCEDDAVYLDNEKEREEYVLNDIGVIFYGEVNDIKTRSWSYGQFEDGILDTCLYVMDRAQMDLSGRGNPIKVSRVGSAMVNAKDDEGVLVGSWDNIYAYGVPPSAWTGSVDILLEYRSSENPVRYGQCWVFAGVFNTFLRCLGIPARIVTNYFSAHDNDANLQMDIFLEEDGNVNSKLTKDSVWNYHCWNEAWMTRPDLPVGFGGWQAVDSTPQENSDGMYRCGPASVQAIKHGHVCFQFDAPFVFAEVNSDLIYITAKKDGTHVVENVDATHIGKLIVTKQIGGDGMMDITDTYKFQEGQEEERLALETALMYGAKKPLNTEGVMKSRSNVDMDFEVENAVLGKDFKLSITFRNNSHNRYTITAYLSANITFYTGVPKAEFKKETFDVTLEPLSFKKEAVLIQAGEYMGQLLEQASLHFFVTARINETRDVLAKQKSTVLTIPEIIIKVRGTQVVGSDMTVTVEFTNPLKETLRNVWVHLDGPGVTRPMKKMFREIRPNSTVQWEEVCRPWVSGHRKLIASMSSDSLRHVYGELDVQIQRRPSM

TG2 = TG2 (Homo sapiens (Human), UniProt P21980); assay: Inhibitory activity against TG2 (isopeptidase assay), Tables 3 and 4; assay type: biochemical; settings: for Selectivity: TG2 versus FXIII
Sequence of TG2 (P21980 whole entry): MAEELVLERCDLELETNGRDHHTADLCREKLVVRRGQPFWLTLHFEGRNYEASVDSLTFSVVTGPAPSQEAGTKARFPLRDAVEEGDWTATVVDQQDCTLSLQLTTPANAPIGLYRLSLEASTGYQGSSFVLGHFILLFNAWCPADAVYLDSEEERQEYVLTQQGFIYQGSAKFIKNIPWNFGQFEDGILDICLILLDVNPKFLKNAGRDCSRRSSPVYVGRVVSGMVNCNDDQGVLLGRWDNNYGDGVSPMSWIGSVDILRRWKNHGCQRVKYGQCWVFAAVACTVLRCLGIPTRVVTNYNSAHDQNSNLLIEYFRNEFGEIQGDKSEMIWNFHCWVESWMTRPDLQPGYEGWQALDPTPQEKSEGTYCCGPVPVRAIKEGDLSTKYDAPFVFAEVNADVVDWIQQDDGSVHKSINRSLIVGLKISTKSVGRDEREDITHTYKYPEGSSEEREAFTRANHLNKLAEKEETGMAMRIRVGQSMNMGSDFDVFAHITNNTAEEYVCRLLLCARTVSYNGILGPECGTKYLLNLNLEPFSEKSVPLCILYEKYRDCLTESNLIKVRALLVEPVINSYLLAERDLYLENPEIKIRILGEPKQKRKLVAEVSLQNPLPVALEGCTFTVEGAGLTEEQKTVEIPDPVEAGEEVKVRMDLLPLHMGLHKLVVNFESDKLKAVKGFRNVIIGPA

whole human blood = assay: Thromboelastometry (ROTEM) in whole human blood with t-PA; assay type: cell-based
Protocol: Clotting time (CT), clot formation time (CFT), maximum clot firmness (MCF) and lysis index at 60 min (LI60) were obtained using fresh whole blood in the ROTEM® delta device according to the manufacturer's instructions.

[1] = isopeptidase assay, Table 3, read-out: IC50 [nM] FXIII

Row | recovery at 2 h (in vitro) [%] | IC50 (FXIII; [1]) [nM] | Selectivity (TG2; isopeptidase assay, Table 3) | IC50 (TG2; isopeptidase assay, Table 3, read-out: IC50 [nM] TG2) [nM] | IC50 (FXIII; Table 4, read-out: FXIII IC50) [nM] | Selectivity (TG2; Table 4) | IC50 (TG2; Table 4, read-out: TG2 IC50) [nM] | half-life (in vitro) [min] | SMILES | increase in clot lysis at 60 minutes compared to control (LI60c) (whole human blood) [%]
1 | > 75 | 24 | 1.3 | 32 |  |  |  |  | COC(=O)/C=C/CC[C@H](NC(=O)c1cc(Cl)c(Cl)cc1C(=O)O)C(=O)N[C@H](C(=O)N1C[C@H]2[C@@H]([C@H]1C(=O)N[C@H](C(=O)N[C@H](C(N)=O)C1CCCCC1)C1CCCCC1)C2(C)C)C(C)(C)C [Compound 29] ({Benzoyl(2-COOH-4,5-Cl2)}-[X1][Tle][Pro(3R,4S-CMe2)][Chg][Chg]-NH2) | 
2 | > 75 | 15 | 1.1 |  |  |  |  |  | COC(=O)/C=C/CC[C@H](NC(=O)c1cc(C(=O)O)cc([N+](=O)[O-])c1)C(=O)N[C@H](C(=O)N1CC(=O)C[C@H]1C(=O)N[C@@H](CC(C)C)C(=O)N1CCC[C@@]1(C)C(=O)NC(C)COc1c(C)cccc1C)C(C)(C)C (some centres unmarked) [Compound 30] ({Benzoyl(3-COOH,5-NO2)}-[X1][Tle][Pro(4-oxo)]L[αMeP]-X6) | 
3 | > 75 |  |  |  | 47 | 16.17 | 760 |  | CCOC(=O)/C=C/CC[C@H](NC(=O)c1cc(Cl)c(Cl)cc1C(=O)O)C(=O)N[C@H](C(=O)N1CCC[C@H]1C(=O)N[C@@H](CC(C)C)C(=O)N[C@H](C(N)=O)C1CCCCC1)C(C)C [Compound 38] ({Benzoyl(2-COOH-4,5-Cl2)}-[Nle(5E-ene,6-CO2Et)]VPL[Chg]-NH2) | 
4 | > 75 |  |  |  | 81 | 10.47 | 848 |  | CCOC(=O)/C=C/CC[C@H](NC(=O)c1cc(C(=O)O)cc([N+](=O)[O-])c1)C(=O)N[C@H](C(=O)N1CC(=O)C[C@H]1C(=O)N[C@H](C(=O)NCCC(C)C)C1CCCCC1)C(C)(C)C [Compound 40] ({Benzoyl(3-COOH,5-NO2)}-[Nle(5E-ene,6-CO2Et)][Tle][Pro(4-oxo)][Chg]-NHIsopentyl) | 
5 | > 75 |  |  |  | 141 | 5.66 | 798 |  | COC(=O)/C=C/CC[C@H](NC(=O)[C@@H]1CC(=O)CN1)C(=O)N[C@@H](CC1CC1)C(=O)N1CCOC[C@H]1C(=O)N[C@@H](CC(C)C)C(=O)N1CCC[C@H]1C(=O)O [Compound 44] (H-[Pro(4-oxo)][X1][Ala(cPr)][Morpholine(3S-CO)]LP-OH) | 11
6 |  |  |  |  | 465 | 6.02 | 2800 | < 15 | CCCC[C@H](NC(=O)[C@H](CC/C=C/C(=O)OC)NC(=O)[C@@H](CC(=O)O)NC(C)=O)C(=O)N[C@@H](CCCC)C(=O)N[C@@H](CC(C)C)C(=O)N1CCC[C@H]1C(=O)N[C@@H](Cc1c[nH]c2ccccc12)C(=O)O [Ref. 13, reference compound] (Ac-[dD][X1][Nle][Nle]LPW-OH) | 
7 |  |  |  |  | > 10 |  | 2150 | < 15 | CCCC[C@H](NC(=O)[C@H](CC/C=C/C(=O)OC)NC(=O)[C@@H](CC(=O)O)NC(C)=O)C(=O)N[C@@H](CCCC)C(=O)N[C@@H](CC(C)C)C(=O)N1CCC[C@H]1C(=O)O [Ref. 14, reference compound] (Ac-[dD][X1][Nle][Nle]LP-OH) | 
8 |  |  |  |  | 226 | 0.52 | 117 | < 15 | CCCC[C@H](NC(=O)[C@H](CC/C=C/C(=O)OC)NC(=O)[C@@H]1CC(=O)CN1)C(=O)N[C@H](C(=O)N[C@@H](CC(C)C)C(=O)N1CCC[C@H]1C(=O)N[C@@H](Cc1c[nH]c2ccccc12)C(=O)O)C(C)CC (some centres unmarked) [Ref. 15, reference compound] (H-[Pro(4-oxo)][X1][Nle][Ile(3ξ)]LPW-OH) | 
9 |  |  |  |  | > 10 |  | 196 | < 15 | CCCC[C@H](NC(=O)[C@H](CC/C=C/C(=O)OC)NC(=O)[C@@H]1CC(=O)CN1)C(=O)N[C@H](C(=O)N[C@@H](CC(C)C)C(=O)N1CCC[C@H]1C(=O)O)C(C)CC (some centres unmarked) [Ref. 16, reference compound] (H-[Pro(4-oxo)][X1][Nle][Ile(3ξ)]LP-OH) | 
10 |  |  |  |  | 420 | 0.54 | 227 | < 15 | COC(=O)/C=C/CC[C@H](NC(=O)[C@H](CC(N)=O)NC(C)=O)C(=O)N[C@@H](CCC(=O)O)C(=O)N[C@@H](CCC(N)=O)C(=O)N[C@H](C(=O)N[C@@H](CO)C(=O)N1CCC[C@H]1C(=O)N[C@@H](CC(C)C)C(=O)N[C@H](C(=O)N[C@@H](CC(C)C)C(=O)N[C@@H](CC(C)C)C(=O)N[C@@H](CCCCN)C(=O)O)C(C)O)C(C)C (some centres unmarked) [Ref. 17, reference compound] (Ac-N[X1]EQVSPL[Thr(3ξ)]LLK-OH) | 
11 |  |  |  |  | 995 | 0.34 | 341 | < 15 | COC(=O)/C=C/CC[C@H](NC(=O)[C@H](CC(N)=O)NC(C)=O)C(=O)N[C@@H](CCC(=O)O)C(=O)N[C@@H](CCC(N)=O)C(=O)N[C@H](C(=O)N[C@@H](CO)C(=O)N1CCC[C@H]1C(=O)N[C@@H](CC(C)C)C(=O)N[C@H](C(=O)N[C@@H](CC(C)C)C(=O)N[C@@H](CC(C)C)C(=O)O)C(C)O)C(C)C (some centres unmarked) [Ref. 18, reference compound] (Ac-N[X1]EQVSPL[Thr(3ξ)]LL-OH) | 
12 |  |  |  |  | 110 | 26.54 | 2920 | < 15 | CCCC[C@H](NC(=O)[C@H](CC/C=C/C(=O)OC)NC(=O)[C@@H](CC(=O)O)NC(C)=O)C(=O)N[C@@H](CCCC)C(=O)N[C@@H](CC(C)C)C(=O)N1CCC[C@H]1C(=O)N[C@@H](Cc1c[nH]c2ccccc12)C(=O)N1CCC[C@H]1C(=O)O [Ref. 22, reference compound] (Ac-[dD][X1][Nle][Nle]LPWP-OH) | 
13 |  |  |  |  | 56 | 1.82 | 102 | < 15 | CCCC[C@H](NC(=O)[C@H](CC/C=C/C(=O)OC)NC(=O)[C@@H]1CC(=O)CN1)C(=O)N[C@H](C(=O)N[C@@H](CC(C)C)C(=O)N1CCC[C@H]1C(=O)N[C@@H](Cc1c[nH]c2ccccc12)C(=O)N1CCC[C@H]1C(=O)O)C(C)CC (some centres unmarked) [Ref. 23, reference compound] (H-[Pro(4-oxo)][X1][Nle][Ile(3ξ)]LPWP-OH) | 
14 |  |  |  |  | 306 | 0.55 | 169 | < 15 | C=CCOC(=O)NCCCC[C@H](NC(=O)[C@H](CC(C)C)NC(=O)[C@H](CC(C)C)NC(=O)[C@@H](NC(=O)[C@H](CC(C)C)NC(=O)[C@@H]1CCCN1C(=O)[C@H](CO)NC(=O)C(NC(=O)[C@H](CCC(N)=O)NC(=O)[C@H](CCC(=O)O)NC(=O)[C@H](CC/C=C/C(=O)OC)NC(=O)[C@H](CC(N)=O)NC(C)=O)C(C)C)C(C)O)C(=O)O (some centres unmarked) [Ref. 24, reference compound] (Ac-N[X1]EQ[ξV]SPL[Thr(3ξ)]LLK(Alloc)-OH) | 

Row | SMILES | recovery at 2 h (in vitro) [%] | IC50 (FXIII; [1]) [nM] | Selectivity (TG2; isopeptidase assay, Table 3) | IC50 (TG2; isopeptidase assay, Table 3, read-out: IC50 [nM] TG2) [nM] | IC50 (FXIII; Table 4, read-out: FXIII IC50) [nM] | Selectivity (TG2; Table 4) | IC50 (TG2; Table 4, read-out: TG2 IC50) [nM] | half-life (in vitro) [min] | increase in clot lysis at 60 minutes compared to control (LI60c) (whole human blood) [%]
15 | C=C1C[C@@H](C(=O)N[C@@H](CC(C)C)C(=O)N2CCC[C@H]2C(=O)O)N(C(=O)[C@@H](NC(=O)[C@H](CC/C=C/C(=O)OC)NC(=O)c2cc(C(=O)O)cc([N+](=O)[O-])c2)C(C)(C)C)C1 [Compound 43] ({Benzoyl(3-COOH,5-NO2)}-[X1][Tle][Pro(4-methylene)]LP-OH) | > 75 |  |  |  | 158 | 5.42 | 856 |  | 14
